The record followed here is patent publication US6803233B2, “Model for Alzheimer's disease and other neurodegenerative diseases” (priority 2000, dated 2004).

“And” between values parts separate entries of the source, which are not always exact repeats. Identical values can stand only once. “Also recorded” adds a separate entry of the source.

What all share (type): cell-based
The test system of one assay is cathepsin D. The assay is described as follows: Immunoblot of cathepsin D isoforms in cultured mouse hippocampal slices. Particulars: 20 μM ZPAD, 6 days. On the technique in general: A western blot detects proteins with antibodies after separation by electrophoresis.
The subject of the next assay is tau. The assay is described as follows: Immunoblot of tau (tau-1, AT8) in cultured rat hippocampal slices. The following applies: rat hippocampal slices; 6 days.
A further assay relates to basophilic granules. Kind of assay: Semithin section histology (toluidine blue) of cultured mouse hippocampal slices. Particulars: 20 μM ZPAD, six days; wild-type and apoE-deficient slices. The protocol: To prepare semithin sections, control and treated slices from both wild-type and apoE-deficient mice were fixed in a solution of 0.1M phosphate buffer (“PB”; pH 7.2), containing 1.5% paraformaldehyde and 1.5% glutaraldehyde. After a period of two to three hours, the solution was removed and the slices were rinsed three times in phosphate buffered saline (“PBS”; 50 mM phosphate buffer, 0.9% NaCl, pH 7.3). At this time, slices were postfixed in 2% osmium tetroxide in PB for one hour, dehydrated in a series of alcohols and embedded in Polybed-812. Semithin (1 μm thick) sections were cut on a Sorvall Porter-Blum ultramicrotome and stained with a solution of 0.1% toluidine blue. Digitized images were imported using a Sony DKC-5000 camera attached to a Zeiss microscope and processed using Adobe Photoshop™.

Another assay concerns tau proteins. The assay is described as follows: Immunoblot with tau-1 antibody in cultured mouse hippocampal slices. Particulars: six days of ZPAD; for reduction in native tau proteins (50-55 kDa): mean±s.e.m., n=6. The procedure: Hippocampal slices were prepared from 10 to 13 day old C57BL/6J (wild-type) and C57BL/6J-ApoE^tm1Unc (ApoE-knockout) mice obtained from the Jackson laboratory, Bar Harbor, Me. Pups were placed under light bromo-chloro-trifluoroethane anesthesia (Sigma, St. Louis, Mo.), and killed by decapitation. After removing the brains, the hippocampus was dissected and subsequently placed on a McIlwain tissue chopper where slices (400 μm thick) were obtained and placed in a solution of cutting medium consisting of Minimum Essential Medium (MEM) with Earle's salts (Gibco, Grand Island, N.Y.), 25 mM HEPES buffer, 10 mM Tris base, 10 mM glucose, and 3 mM MgCl2, pH 7.20. Hippocampal slices were then placed onto the membranes of Millicell-CM culture inserts (Millipore Corp., Bedford, Mass.) in 6 well culture cluster plates and 1 ml of media per well using the methods described by Stoppini et al., J. Neurosci. Methods 37(2):173-82 (1991). The culture medium was described previously by Bednarski et al., J. Neurosci. 17(11):4006-21 (1997). The cultures were incubated in a 37° C. atmosphere containing 5% CO2 and the culture medium was replaced every other day until the initiation of experiments. Each culture cluster plate contained hippocampal slices from either two wild-type or two apoE-knockout mice and individual wells were used for matched control and experimental treatment groups.
After maintaining the slices with normal culture medium (Bednarski et al., J. Neurosci. 17(11):4006-21 (1997)) in vitro for 12-14 days, slices were incubated with culture medium containing either 20 μM N-CBZ-L-phenylalanyl-L-alanine-diazomethyl-ketone (ZPAD; BACHEM Bioscience, Inc., Torrance, Calif.), an inhibitor of cathepsins B and L (Shaw & Dean, Biochem. J. 186:385-390 (1980); Green & Shaw, J Biol Chem. 256:1923-1928 (1981); Richardson et al., J. Cell Biol. 107: 2097-2107 (1988)) or vehicle (dimethylsulfoxide; DMSO, 0.01%-0.04%) for six days. This treatment media was exchanged every other day.
Control and ZPAD-treated slices were collected in ice-cold 10 mM Tris-HCl harvest buffer consisting of 0.32 M sucrose, 2 mM EDTA, 2 mM EGTA, and 0.1 mM leupeptin, pH 7.4, and centrifuged at 12,000×g for 5 minutes at 4° C. At this point, the pellets were resuspended in lysis buffer (8 mM HEPES, 1 mM EDTA, 0.3 mM EGTA, pH 8.0) and sonicated. The Bradford analysis was performed (Bradford, M, Anal. Biochem 72:248-254 (1976)) and 100-120 μg of protein from each sample was denatured by boiling for 5 min with 2.5% (wt/vol) sodium dodecyl sulfate (SDS) and 3% 2-mercaptoethanol and then subjected to SDS-PAGE on 10% linear gradient gels. See Laemmli et al., J. Mol. Biol. 47:69-85 (1970). […] Relative optical densities and areas of immunobands were quantified using the NIH image analysis system.

Another assay concerns caspase 3. The assay is described as follows: ELISA assay of caspase 3 activity in cultured hippocampal slices. The following applies: slices cultured 12 days, treated 6 days. The protocol: Hippocampal slices were cultured for 12 days and incubated with vehicle alone, ZPAD, or chloroquine (CQN; a lysosomal inhibitor) for 6 days (FIG. 28). Cultures were then homogenized, and subjected to an ELISA assay to detect the activity of caspase 3, an apoptotic protease.
For orientation: ELISA stands for enzyme-linked immunosorbent assay.

Where [1] appears, read: apoE-knockout mouse slices, relative to yoked knockout controls.
[2] abbreviates: wild-type mouse slices, relative to controls, mean±s.e.m.

In the case of “N-CBZ-L-phenylalanyl-L-alanine-diazomethyl-ketone [ZPAD]”, the “increase in cathepsin D heavy chain (~38 kDa)” value in the assay with cathepsin D (apoE-knockout mouse slices, relative to control values) is 84±26% and 84+26%. Moreover, in the assay on cathepsin D (setting [1]), the “increase in cathepsin D proenzyme (~55 kDa)” value is 145±43% and 145+43%; the “increase in cathepsin D single chain (~50 kDa)” value is 150±29% and 150+29%. Besides, in the assay with cathepsin D (setting [2]), the “increase in cathepsin D heavy chain (~38 kDa)” value is 3.0±5.7% and 3.0+5.7%; the “increase in cathepsin D single chain form (~50 kDa)” value was 42±22% and 42+22%. The “increase in cathepsin D proenzyme (~55 kDa)” value in the assay on cathepsin D (wild-type mouse slices, relative to yoked controls, mean±s.e.m., n=9) was 65±29% and 65+29%. In the assay on tau, the “native tau proteins (tau-1 blot)” value was “decreases in the native tau proteins; also recorded: induced a truncation of native tau proteins”; the “tau fragments (tau-1 blot)” value was “increases in fragments at apparent molecular weights of 40, 33, and 29 kDa; also recorded: generation of tau fragments”. In addition, in the assay on basophilic granules, the “number of basophilic granules (lysosomes)” value was “increase in the number of basophilic granules”. Besides, in the assay on tau proteins (apoE-knockout mouse slices), the “increase in levels of the 15-35 kDa tau fragments” value is reported as 277±20% and the “reduction in native tau proteins (50-55 kDa)” value is reported as 35±1.1%. In the assay on tau proteins (wild-type mouse slices), the “increase in levels of the 15-35 kDa tau fragments” value is 240±19% and the “reduction in native tau proteins (50-55 kDa)” value was found to be 22±2.6%. Further, the “activity of caspase 3” value with caspase 3 is listed as “marked increase”.
